Like-named read-outs stand apart in the source and are kept apart here.
Assays:
SARS-CoV-2 3CLpro = SARS-CoV-2 3CLpro (Severe acute respiratory syndrome coronavirus 2 (2019-nCoV) (SARS-CoV-2), UniProt P0DTD1); assay: biochemical
SARS-CoV-2 = assay: microbe, parasite or virus in culture; type: cell-based; conditions: Severe acute respiratory syndrome coronavirus 2, 72 h, read-out: ID50 (Antiviral Data)
[1] = read-out: IC50 (SARS-CoV-2 3CLpro Inhibition)
[2] = IC50 (SARS-CoV-2 3CLpro Inhibition)

C=CC(=O)N1CCCC1C(=O)N(c1ccc(C(C)(C)C)cc1)C(C(=O)NC(C)(C)C)c1cccnc1 (stereo not drawn) [Compound 1]
IC50 (SARS-CoV-2 3CLpro; [1]): > 100 µM

C=C(C)C(=O)N1CCCC1C(=O)N(c1ccc(C(C)(C)C)cc1)C(C(=O)NC(C)(C)C)c1cccnc1 (stereo not drawn) [Compound 2]
IC50 (SARS-CoV-2 3CLpro; [2]): > 100 µM | IC50 (SARS-CoV-2): > 100 µM

C/C=C(\C)C(=O)N1CCCC1C(=O)N(c1ccc(C(C)(C)C)cc1)C(C(=O)NC(C)(C)C)c1cccnc1 (stereo not drawn) [Compound 3]
IC50 (SARS-CoV-2 3CLpro; [2]): > 100 µM | IC50 (SARS-CoV-2): > 100 µM

C=C(C)C(=O)N1CCCC1C(=O)N(c1ccc(C(C)(C)C)cc1)C(C(=O)NC(C)(C)C)c1cccnc1 (stereo not drawn) [Compound 4]
IC50 (SARS-CoV-2 3CLpro; [1]): > 100 µM

CCC(=O)N1CCCC1C(=O)N(c1ccc(C(C)(C)C)cc1)C(C(=O)NC(C)(C)C)c1cccnc1 (stereo not drawn) [Compound 5]
IC50 (SARS-CoV-2 3CLpro; [2]): > 100 µM | IC50 (SARS-CoV-2): > 100 µM

C/C=C(\C)C(=O)N1CCC[C@@H]1C(=O)N(c1ccc(C(C)(C)C)cc1)C(C(=O)NC(C)(C)C)c1cccnc1 (stereo partly drawn) [Compound 6]
IC50 (SARS-CoV-2 3CLpro; [2]): 10.1 to 100 µM

C/C=C/C(=O)N1CCCC1C(=O)N(c1ccc(C(C)(C)C)cc1)C(C(=O)NC(C)(C)C)c1cccnc1 (stereo not drawn) [Compound 7]
IC50 (SARS-CoV-2 3CLpro; [2]): 1 to 10 µM | IC50 (SARS-CoV-2): > 100 µM

C/C=C/C(=O)N1CCCC1C(=O)N(c1ccc(C(C)(C)C)cc1)C(C(=O)NC(C)(C)C)c1cccnc1 (stereo not drawn) [Compound 8]
IC50 (SARS-CoV-2 3CLpro; [2]): 10.1 to 100 µM

C=CC(=O)N1CCC(C(=O)N(c2ccc(C(C)(C)C)cc2)C(C(=O)NC(C)(C)C)c2cccnc2)C1 (stereo not drawn) [Compound 9]
IC50 (SARS-CoV-2 3CLpro; [2]): 10.1 to 100 µM | IC50 (SARS-CoV-2): > 100 µM

C=CC(=O)N1CC[C@@H](C(=O)N(c2ccc(C(C)(C)C)cc2)C(C(=O)NC(C)(C)C)c2cccnc2)C1 (stereo partly drawn) [Compound 10]
IC50 (SARS-CoV-2 3CLpro; [2]): 10.1 to 100 µM

C=CS(=O)(=O)N1CCCC1C(=O)N(c1ccc(C(C)(C)C)cc1)C(C(=O)NC(C)(C)C)c1cccnc1 (stereo not drawn) [Compound 11]
IC50 (SARS-CoV-2 3CLpro; [2]): > 100 µM | IC50 (SARS-CoV-2): > 100 µM

C=CC(=O)N1CCCC1C(=O)N(c1ccc(C(C)(C)C)cc1)C(C(=O)NC(C)(C)C)c1cccnc1 (stereo not drawn) [Compound 12]
IC50 (SARS-CoV-2 3CLpro; [2]): > 100 µM | IC50 (SARS-CoV-2): > 100 µM

C=CS(=O)(=O)N1CC[C@@H](C(=O)N(c2ccc(C(C)(C)C)cc2)C(C(=O)NC(C)(C)C)c2cccnc2)C1 (stereo partly drawn) [Compound 13]
IC50 (SARS-CoV-2 3CLpro; [2]): > 100 µM | IC50 (SARS-CoV-2): > 100 µM

C=CS(=O)(=O)N1CC[C@@H](C(=O)N(c2ccc(C(C)(C)C)cc2)C(C(=O)NC(C)(C)C)c2cccnc2)C1 (stereo partly drawn) [Compound 14]
IC50 (SARS-CoV-2 3CLpro; [1]): > 100 µM

C=CC(=O)N1CCC(F)(F)CC1C(=O)N(c1ccc(C(C)(C)C)cc1)C(C(=O)NC(C)(C)C)c1cccnc1 (stereo not drawn) [Compound 15]
IC50 (SARS-CoV-2 3CLpro; [2]): > 100 µM | IC50 (SARS-CoV-2): > 100 µM

Reference: patent US11795159B2 (priority 2021, dated 2023)
